A short description of data set [1]: S9 fraction stability assay. The class given is in vitro ADME. To be noted: NADPH, 100 mM Tris-HCl pH 7.4, […] MgCl2, 37 °C, 24 h incubation, HPLC or LC-MS, compared to pexiganan. On the procedure:
200 μL NPN dye was added to wells of a 96 well plate to produce a final concentration of 10 μM, and the background fluorescence was recorded (λex = 350 nm, λem = 420 nm). Aliquots of peptoids were added to the well, and fluorescence was recorded as a function of time until there was no further increase in fluorescence. Increases of the permeability of the outer membrane after the addition of peptoids was reflected by increased fluorescence values as a result of NPN incorporation into the membrane.
The permeability of the inner membrane was determined using E. coli ML-35 cells […]
The intact bacterial inner membrane is non-permeable to o-nitrophenyl-β-D-galactopyranoside (OPNG), a chromogenic substrate of the β-galactosidase.
Following damage to the inner membrane, OPNG enters the cells and is metabolized by β-galactosidase creating a chromogenic […]. […] The hydrolysis of ONPG and generation of o-nitrophenol over time were monitored as absorbance change at 405 nm following the addition of peptoids.
The resistance of peptoids against metabolic enzyme degradation was measured by an S9 fraction assay. […] Quenched samples were centrifuged for 5 minutes at 1200 rpm and analyzed by analytical HPLC or LC-MS.
Protein extraction and quantification using Bradford assay […]

Data set [2] relates to HaCaT human keratinocytes. The data set is described as follows: MTS cytotoxicity assay. The data set is classed as cell-based. To be noted: 24 h exposure in DMEM, concentration killing 50% of cells. On the procedure: 4. Cell culture and cytotoxicity test using MTS assay
(Seoul, South Korea), human keratinocytes (HaCaT) were provided by the Skin Research Institute R&D Center of Amore Pacific Company (Yongin, South Korea). All cells were grown in Dulbecco's modified Eagle’s medium (DMEM) supplemented with 10% fetal bovine serum at 37 °C in an atmosphere containing 5% CO2. The 3-(4,5-dimethylthiazol-2- […]
assays were used to determine the effects of peptoids on cell growth.[4] Aliquots (100 µL) of media containing 1.3×10^4 MRC-5 cells/mL or 3×10^4 HaCaT cells/mL were distributed into each well of a 96-well plate (Eppendorf, Hamburg, Germany). The cells were allowed to attach and were grown in a humidified atmosphere containing 5% CO2 at 37 °C for 24 h.
When the cell density reached approximately 70% confluency, the medium was replaced with serial dilutions of the peptoid stock in DMEM and incubated for an additional 24 h. […] The MTS-formazan products in viable cells were measured at 490 nm using a microplate reader, and the percentage of cell viability (%) was calculated by comparing readings to the values of untreated wells. Percentage values of cell viability were calculated as A/(A control)×100, where A is the absorbance of the test well and A control is the average absorbance of wells containing untreated cells. […]

In data set [3] the test system is E. coli ATCC 25922. The data set is described as follows: Bacterial respiration assay (oxygen consumption rate). The data set is classed as cell-based. The settings on record: at MIC concentration, Seahorse XFe96, M9 + 10 mM glucose. The protocol:
11. Bacterial respiration assay
Figure S12. Real-time changes in oxygen consumption rate (OCR, in picomoles of molecular oxygen per minute) in response to treatment with peptoid 29, ampicillin (Amp), and chloramphenicol (Cam) in E. coli measured on a Seahorse XFe 96 extracellular flux analyzer.
OCR changes in cells treated with 29 over time (2.5 min intervals). b) Comparison of OCR responses induced by 29, Amp, and Cam treatment detected at 2.5 min intervals. The vertical line with azure color indicates the injection point of each antibiotic into the cultures. All data represent the mean ± SEM of 5-8 replicates.
Bacterial respiration assays
Cellular oxygen consumption rate (OCR) of E. coli ATCC 25922 was measured using a Seahorse XFe96 Extracellular Flux Analyzer (Agilent) as published previously.[9] Briefly, after overnight culture in LB, bacterial cells were diluted 1:200 into fresh M9 media (M6030, Sigma) and incubated for an additional 3 h at 37 °C. To conduct the measurements, bacteria were diluted to OD600 of 0.02 in M9 supplemented with 10 mM glucose. 90 μL of this cell suspension was loaded into a 96-well microplate precoated with poly-D-lysine (100 μg/mL, Sigma). […] OCR values were quantified every 2.5 min (mix and measure for 30 sec and 2 min, respectively) for an additional 48 cycles, and normalized to bacterial density […]

Square brackets hold non-standard residues; d marks the D form. Peptide text beside a SMILES is read from it. Gly(N(CH2)2(3-indolyl)) = O=C(O)CNCCc1c[nH]c2ccccc12; Nspe = C[C@H](NCC(=O)O)c1ccccc1; Nlys = NCCCCNCC(=O)O

As to `C[C@@H](c1ccccc1)N(CC(N)=O)C(=O)CN(C(=O)CN(CCCCN)C(=O)CN(C(=O)CN(C(=O)CN(CCCCN)C(=O)CN(C(=O)CN(C(=O)CN(CCCCN)C(=O)CN(C(=O)CN(C(=O)CNCCCCN)[C@@H](C)c1ccccc1)[C@@H](C)c1ccccc1)[C@@H](C)c1ccccc1)[C@@H](C)c1ccccc1)[C@@H](C)c1ccccc1)[C@@H](C)c1ccccc1)[C@@H](C)c1ccccc1` [peptoid 1, reference compound] (H-[Nlys][Nspe][Nspe][Nlys][Nspe][Nspe][Nlys][Nspe][Nspe][Nlys][Nspe][Nspe]-NH2), in data set [1], the “stability in human liver S9 fraction” value was “superior stability”. Besides, the “LC50 HaCaT” value in data set [2] turned out to be 7.3 µM.

Turning to `C[C@@H](c1ccccc1)N(CC(=O)N(CCCCN)CC(=O)N(CCc1c[nH]c2ccccc12)CC(=O)N(CCc1c[nH]c2ccccc12)CC(N)=O)C(=O)CN(CCCCN)C(=O)CN(CCCCN)C(=O)CN(C(=O)CN(C(=O)CN(CCCCN)C(=O)CN(C(=O)CN(C(=O)CNCCCCN)[C@@H](C)c1ccccc1)[C@@H](C)c1ccccc1)[C@@H](C)c1ccccc1)[C@@H](C)c1ccccc1` [peptoid 29] (H-[Nlys][Nspe][Nspe][Nlys][Nspe][Nspe][Nlys][Nlys][Nspe][Nlys][Gly(N(CH2)2(3-indolyl))][Gly(N(CH2)2(3-indolyl))]-NH2), in data set [1], the “stability in human liver S9 fraction” value was “superior stability”. For the same compound, the “time after which OCR converged to zero” value in data set [3] turned out to be 30 min.

For the origin of these results see article PMC10460844, “Real‐Time Monitoring of Multitarget Antimicrobial Mechanisms of Peptoids Using Label‐Free Imaging with Optical Diffraction Tomography” (Advanced Science, 2023).
